Experimental data: patent publication US6506756B2, “Substituted imidazoles as dual histamine H1 and H3 agonists or antagonists” (Schering Corporation, priority 2000, dated 2003)
Structures can show the parent of a compound that is named as a salt.

Assays:
[1] = target: T1, H3 receptors (Cavia porcellus, UniProt Q9JI35); test: H3-receptor binding assay (guinea pig brain membranes, [3H]R-α-methyl histamine or [3H]Nα-methyl histamine); conditions: for Ki: HCl salt of the indicated compound, read-out: H3 Ave Ki; for inhibition at 2 µg/mL: final concentration 2 μg/ml, HCl salt
T1 construct: The source of the H3 receptors in this experiment was guinea pig brain; from tissue; host or cells: guinea pig brain membranes
Protocol: General Procedure for H3-Receptor Binding Assay
The source of the H3 receptors in this experiment was guinea pig brain. The animals weighed 400-600 g. The brain tissue was homogenized with a solution of 50 mM Tris, pH 7.5. The final concentration of tissue in the homogenization buffer was 10% w/v. The homogenates were centrifuged at 1,000×g for 10 min. in order to remove clumps of tissue and debris. The resulting supernatants were then centrifuged at 50,000×g for 20 min. in order to sediment the membranes, which were next washed three times in homogenization buffer (50,000×g for 20 min. each). The membranes were frozen and stored at −70° C. until needed.
All compounds to be tested were dissolved in DMSO and then diluted into the binding buffer (50 mM Tris, pH 7.5) such that the final concentration was 2 μg/ml with 0.1% DMSO. Membranes were then added (400 μg of protein) to the reaction tubes. The reaction was started by the addition of 3 nM [^3H]R-α-methyl histamine (8.8 Ci/mmol) or 3 nM [^3H]N^α-methyl histamine (80 Ci/mmol) and continued under incubation at 30° C. for 30 min. Bound ligand was separated from unbound ligand by filtration, and the amount of radioactive ligand bound to the membranes was quantitated by liquid scintillation spectrometry. All incubations were performed in duplicate and the standard error was always less than 10%. Compounds that inhibited more than 70% of the specific binding of radioactive ligand to the receptor were serially diluted to determine a Ki (nM). The results are given in the Table 1 for the HCl salt of the indicated compound.

[2] = target: T2, Histamine H1 receptor (Rattus norvegicus, UniProt P31390); test: H1-receptor binding assay (rat brain membranes, [3H]pyrilamine); conditions: for Ki: Cheng-Prusoff from IC50, HCl salt, read-out: H1 Ave Ki; for inhibition at 1 µg/mL: concentration not given (top test concentration 1 μg/ml), HCl salt
T2 construct: The tissue source was male Sprague-Dawley rat brain; tissue Rockland Corporation, Gilbertsville, Pa; host or cells: male Sprague-Dawley rat brain membranes
Excerpt: General Procedure for H1-Receptor Binding Assay
The procedure used was based on that disclosed in V.T. Tran et al, “Histamine H1 receptors identified in mammalian brain membranes with [H-3]mepyramine”, Proc. Natl. Acad. Sci. U.S.A. 75 (1978) 6290-6294.
I. Tissue Preparation Protocol for Histamine H1 Receptor Binding Assay:
1. The tissue source was male Sprague-Dawley rat brain. These were purchased, stripped and frozen (available from Rockland Corporation, Gilbertsville, Pa.). The buffer used was ice-cold 50 mM Tris-HCl, pH 7.5. (The pH was determined at 25° C.)
2. The brains were spread out on plastic wrap on the benchtop and allowed to thaw for 10-15 min. After this, everything was kept ice-cold.
3. Two brains were put in each 50 ml round bottom centrifuge tube and 25 ml of buffer was added. Then they were broken up with a Polytron (from Brinkmann Instruments, Westbury, N.Y.) equipped with a PT-10 tip at setting 6 for 30 sec.
4. The volume in the tube was brought up to 45 ml and mixed and the particulate material was centrifuged at 1000×g (3000 rpm, SS-34 rotor) for 10 min to remove nuclei and unbroken cells.
5. Pellets were discarded and the supernatants were centrifuged 10 min at 50,000×g (20,000 rpm, SS-34 rotor).
6. The high-speed pellets were resuspended in a volume of Tris buffer equal to the original ([…]), the contents of all tubes were pooled, and a sample was taken for BCA protein assay. The material was aliquotted, 45 ml per round-bottom tube, and the resuspension was recentrifuged. The yield of protein was approximately 20 mg/brain, so there was about 40 mg of protein per tube.
7. Pellets were frozen at −80° C.
1. FDCL and comparative compounds for assay were independently solubilized at 1mg/ml DMSO by vortexing, or if necessary by sonication. The first dilution, 100-fold, was made in 50 mM Tris-HCl, pH 7.5, at room temperature. The three or four subsequent ten-fold serial dilutions were made in 1% DMSO/50 mM Tris-HCl, pH 7.5. Drug solutions and assay plates were kept at room temperature during the course of the assay set up.
2. Test compounds were assayed at four or five concentrations: 1, 0.1, 0.01, 0.001, and 0.0001 μg/ml. Twenty μl of drug solution was pipeted into each of three wells.
3. [^3H]Pyrilamine was diluted approximately 2000-fold with ice-cold […] Tris-HCl, pH 7.5 (to a working concentration of 20-25 nM), and put on ice.
4. A frozen tissue pellet was thawed in a 25° C. water bath, resuspended in 50 mM Tris-HCl, pH 7.5, at 1.7-2 mg/ml by brief break-up on the Polytron, and put on ice.
5. Twenty μl of diluted [^3H]pyrilamine was added to each well.
6. One hundred fifty μl of tissue suspension was added to each well.
7. The top of the plate was covered and it was placed in a 25° C. shaking water bath (about 60 oscillations/min) for 30 min.
8. Samples were filtered on a Tomtec Mach 2 harvester (available from Tomtec Corporation, Orange, Conn.) through a GF/B filter mat (from Wallac, Inc., Gaithersburg, Md.) presoaked in 0.3% polyethylenimine. Each sample was thrice washed with ice-cold 50 mM Tris-HCl, pH 7.5 dried 20 sec on the Tomtec, and dried 3-4 min in a microwave oven on a paper towel. The filter was impregnated with MELTILEX brand wax scintillant (from Wallac Corporation) and counted on a Betaplate scintillation counter (from Wallac Corporation).
9. Specific binding was determined as the difference between total and nonspecific binding. The percent inhibition in the presence of inhibitor or standard was determined using the formula: [1-(sample binding-nonspecific binding)/specific binding]×100 For compounds that inhibit more than 50% at 1 μg/ml, an IC50 value was interpolated from proximate concentrations. […]

T1 sequence (Q9JI35 whole entry): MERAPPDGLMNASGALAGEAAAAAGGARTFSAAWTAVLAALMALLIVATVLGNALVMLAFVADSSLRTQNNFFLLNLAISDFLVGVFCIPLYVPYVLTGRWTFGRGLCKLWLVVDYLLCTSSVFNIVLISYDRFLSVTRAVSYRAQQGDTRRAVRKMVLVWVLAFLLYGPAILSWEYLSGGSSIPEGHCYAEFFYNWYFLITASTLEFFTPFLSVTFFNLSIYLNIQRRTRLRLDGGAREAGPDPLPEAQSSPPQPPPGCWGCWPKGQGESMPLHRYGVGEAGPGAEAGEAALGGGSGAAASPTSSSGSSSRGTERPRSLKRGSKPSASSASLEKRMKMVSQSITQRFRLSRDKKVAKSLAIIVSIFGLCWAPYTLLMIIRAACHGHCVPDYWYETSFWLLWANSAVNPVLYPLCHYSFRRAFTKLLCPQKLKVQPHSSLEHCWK
T2 sequence (P31390 whole entry): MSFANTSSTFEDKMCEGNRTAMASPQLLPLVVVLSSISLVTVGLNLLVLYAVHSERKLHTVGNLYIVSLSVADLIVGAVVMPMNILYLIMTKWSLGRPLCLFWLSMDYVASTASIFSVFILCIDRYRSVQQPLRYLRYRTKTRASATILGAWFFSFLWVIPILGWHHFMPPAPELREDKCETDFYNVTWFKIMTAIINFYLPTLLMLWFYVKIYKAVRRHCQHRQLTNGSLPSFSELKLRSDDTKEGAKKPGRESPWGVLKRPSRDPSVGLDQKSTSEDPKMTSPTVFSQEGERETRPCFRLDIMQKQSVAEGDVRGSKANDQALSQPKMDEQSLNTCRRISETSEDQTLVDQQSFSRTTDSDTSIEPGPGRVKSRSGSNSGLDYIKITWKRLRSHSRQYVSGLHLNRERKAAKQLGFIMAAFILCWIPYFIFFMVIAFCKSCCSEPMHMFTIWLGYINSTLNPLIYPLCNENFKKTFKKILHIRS

Row | Ki [1] [nM] | Ki [2] [nM] | inhibition at 2 µg/mL [1] [%] | inhibition at 1 µg/mL [2] [%] | melting point | Compound
1 | 660 | 16 |  |  |  | Clc1ccc2c(c1)CCc1cccnc1C2=C1CCN(Cc2c[nH]cn2)CC1
2 |  | 5.6 | 53 |  |  | Clc1ccc2c(c1)CCc1cccnc1C2N1CCN(CCc2c[nH]cn2)CC1 (centres unmarked)
3 |  |  | 47 |  |  | O=C(CCc1c[nH]cn1)N1CCC(=C2c3ccc(Cl)cc3CCc3cccnc32)CC1
4 | 260 | 4.1 |  |  |  | Clc1ccc2c(c1)CCc1cccnc1C2=C1CCN(CCCc2c[nH]cn2)CC1
5 |  | 24 | 5 | 84 |  | Cn1cnc(CN2CCN(C3c4ccc(Cl)cc4CCc4cccnc43)CC2)c1 (centres unmarked)
6 |  | 300 | 18 | 42 |  | O=C(c1c[nH]cn1)N1CCN(C2c3ccc(Cl)cc3CCc3cccnc32)CC1 (centres unmarked)
7 | 68.5 | 31.5 |  |  |  | Clc1ccc2c(c1)CCc1cccnc1C2N1CCN(CCCCc2c[nH]cn2)CC1 (centres unmarked)
8 | 25.2 | 10.5 |  |  |  | Clc1ccc2c(c1)CCc1cccnc1C2=C1CCN(CCCCc2c[nH]cn2)CC1
9 |  | 200 | 44 |  |  | O=C(CCc1c[nH]cn1)N1CCN(C2c3ccc(Cl)cc3CCc3cccnc32)CC1 (centres unmarked)
10 | 173 | 7.5 |  |  |  | Clc1ccc2c(c1)CCc1cccnc1C2N1CCN(CCCc2c[nH]cn2)CC1 (centres unmarked)
11 | 42 | 14.3 |  |  |  | Clc1ccc2c(c1)CCc1cccnc1C2C1CCN(CCCCc2c[nH]cn2)CC1 (centres unmarked)
12 | 32 | 12.5 |  |  |  | Clc1ccc2c(c1)CCc1cccnc1C2N1CCN(CCCCCc2c[nH]cn2)CC1 (centres unmarked)
13 | 22.5 | 7 |  |  |  | Clc1ccc2c(c1)CCc1cccnc1C2C1CCN(CCCCCc2c[nH]cn2)CC1 (centres unmarked)
14 | 26.5 | 2.5 |  |  |  | Clc1ccc2c(c1)CCc1cccnc1C2=C1CCN(CCCCCc2c[nH]cn2)CC1
15 | 41 | 8 |  |  |  | Clc1ccc2c(c1)CCc1cccnc1C2N1CCN(CCCCCCc2c[nH]cn2)CC1 (centres unmarked)
16 | 27.5 | 5.5 |  |  |  | Clc1ccc2c(c1)CCc1cccnc1C2C1CCN(CCCCCCc2c[nH]cn2)CC1 (centres unmarked)
17 | 33.5 | 12 |  |  |  | Clc1ccc2c(c1)CCc1cccnc1C2=C1CCN(CCCCCCc2c[nH]cn2)CC1
18 | 148 |  |  | 36 |  | O=C(OCCCCc1c[nH]cn1)N1CCN(C2c3ccc(Cl)cc3CCc3cccnc32)CC1 (centres unmarked)
19 | 47 | 250 |  |  |  | O=C(NCCCCc1c[nH]cn1)N1CCN(C2c3ccc(Cl)cc3CCc3cccnc32)CC1 (centres unmarked)
20 |  |  |  |  | 165 to 170 °C (dec.) | Clc1ccc2c(c1)CCc1cccnc1C2N1CCN(CCCCc2c[nH]cn2)CC1 (centres unmarked) (as salt: HCl) [Example 12, 8-Chloro-6,11-dihydro-11-[4-[4-(1H-imidazol4-yl)butyl]-1-piperazinyl]-5H-benzo[5,6]cyclohepta[1,2-b]pyridine]
21 |  |  |  |  | 162 to 165 °C (dec.) | Clc1ccc2c(c1)CCc1cccnc1C2=C1CCN(CCCCCCc2c[nH]cn2)CC1 (as salt: hydrochloride) (hydrate or solvate) [Example 14, 8-Chloro-6,11-dihydro-11-[1-[6-(1H-imidazol-4-yl)hexyl]-4-piperidinylidene]-5H-benzo[5,6]cyclohepta[1,2-b]pyridine]
22 |  |  |  |  | 164 to 170 °C (dec.) | Clc1ccc2c(c1)CCc1cccnc1C2C1CCN(CCCCCc2c[nH]cn2)CC1 (centres unmarked) (as salt: hydrochloride) [Example 13, 8-chloro-6,11-dihydro-11-[1-[5-(1H-imidazol-4-yl)pentyl]-4-piperidinyl]-5H-benzo[5,6]cyclohepta[1,2-b]pyridine]
23 |  |  |  |  | 190.5 to 192 °C (dec.) | Clc1ccc2c(c1)CCc1cccnc1C2N1CCN(Cc2c[nH]cn2)CC1 (racemic) (as salt: HCl) (hydrate or solvate) [1-(8-Chloro-6,11-dihydro-5H-benzo[5,6]cyclohepta[1,2-b]pyridin-11-yl)-4-[(1H-imidazol-4-yl)-methyl]-piperazine]
24 | 150 | 36.8 |  |  |  | Clc1ccc2c(c1)CCc1cccnc1C2N1CCN(Cc2c[nH]cn2)CC1 (racemic) [1-(8-Chloro-6,11-dihydro-5H-benzo[5,6]cyclohepta[1,2-b]pyridin-11-yl)-4-[(1H-imidazol-4-yl)-methyl]-piperazine]
25 |  | 1.2 | 15 |  |  | Clc1ccc2c(c1)CCc1cccnc1C2C1CCN(Cc2c[nH]cn2)CC1 (single isomer, unassigned) [drawing 60]
26 | 91 | 182 |  |  |  | Clc1ccc2c(c1)CCc1cccnc1C2C1CCN(Cc2c[nH]cn2)CC1 (single isomer, unassigned) [drawing 61]
27 | 121 | 4.6 |  |  |  | Clc1ccc2c(c1)CCc1cccnc1C2N1CCN(Cc2c[nH]cn2)CC1 (single isomer, unassigned; (+)) [(+)-(8-Chloro-6,11-dihydro-5H-benzo[5,6]cyclohepta[1,2-b]pyridin-11-yl)-4-[(1H-imidazol-4-yl)methyl]-piperazine]
28 | 133 | 15.4 |  |  |  | Clc1ccc2c(c1)CCc1cccnc1C2N1CCN(Cc2c[nH]cn2)CC1 (single isomer, unassigned; (-)) [(−)-(8-Chloro-6,11-dihydro-5H-benzo[5,6]cyclohepta[1,2-b]pyridin-11-yl)-4-[(1H-imidazol-4-yl)methyl]-piperazine]
